PMC10892409, “Exploring Ocimum basilicum’s Secondary Metabolites: Inhibition and Molecular Docking against Rhynchophorus ferrugineus for Optimal Action” (Plants, 2024)
In brackets after ≈: the same amount, converted by molar mass. Several values for one entry are separate records, joined by “and”; a condition that tells them apart may be missing. Equal values may be shown once.

Key:
[1] = system: AChE; test: In vitro AChE inhibition, larval homogenate (Ellman); format: biochemical, Rhynchophorus ferrugineus; details: fourth-instar larvae preparation
Experimental: (§1) The R. ferrugineus were homogenized larvae in a buffer (sodium phosphate, 40 mM, and pH 7.4); then, sodium chloride (10 mM dissolved in 1% (w/v) triton X-100) was added. During centrifugation (Sigma 3–30 KS), the homogenate was chilled to 4 °C and spun at a speed of 5000 rpm (20 min). The supernatant was either immediately put into action for an enzymatic test or frozen and kept at […] for later use. Each test was repeated three times. The protein content was determined using the same protocol employed by Lowry with modification using protein extract (100 µL) combined with an alkaline copper solution and a Folin–Ciocalteu phenol reagent (2 mL and 200 µL, respectively). The intensity of the resulting blue hue was evaluated during 30 min of incubation at 25 °C. Using an ELISA plate reader and a BSA standard curve, we could calculate the protein concentration by analyzing the absorbance at 600 nm (Multiskan SkyHigh Microplate Spectrophotometer, Thermo Fisher Scientific, Waltham, MA, USA).
(§2) The enzyme AChE was assessed using a substrate of acetylthiocholine iodide and evaluated using 5,5′-dithiobis [2-nitrbenzoic acid] (DTNB), according to [94]. Each well contained a sodium phosphate buffer (140 µL) (pH: 8.0; 100 mM), DTNB (10 µL), extract (20 µL)/components at 1, 10, 50, 100, and 1000 µg/mL in DMSO and underwent 15 min of incubation at 25 °C. Acetylthiocholine (ATCh) was added to start the reaction (10 µL). The ATCh enzymatic hydrolysis produced a 5-thio-2-nitrobenzoate anion as a color (yellow) that was detected by measuring its wavelength, i.e., 412 nm, thereby allowing the researchers to track the rate of ATCh hydrolysis (15 min). Each response was performed three times on a microplate and examined using an ELISA plate reader to determine the 412 nm absorbance of the combination (Multiskan SkyHigh Microplate Spectrophotometer). The AChE-specific activity was measured as OD412/mg protein.h. based on observing the effect of raising the quantities of all of these compounds during the tests on the inhibition results, and the inhibitory concentration (IC50) was calculated. Then, a computer algorithm was used to determine the IC50 values (Version 9.01 of GraphPad Prism by Inc., 2020, San Diego, CA, USA).

[2] = system: ACPs; test: In vitro ACP inhibition, larval homogenate; format: biochemical, Rhynchophorus ferrugineus; details: fourth-instar larvae preparation
Experimental: as §1
(§3) Activities of ACPs and ALPs were evaluated using a modified version of the Asakura technique. The ACP test required incubating 100 μL of crude enzyme in a buffer of 650 μL of sodium acetate (pH: 5.0; 50 mM with ACPs) or 250 μL of Tris–HCl (at 50 mM; pH: 8.0 with ALPs) and p-nitrophenyl phosphate (5.5 mM). For 30 min; the various mixes were kept at 37 °C for incubation. Thereafter, 500 μL of NaOH (0.5 N) stopped the reaction. Using an ELISA plate reader, we determined the mixture’s 415 nm absorbance value (Multiskan SkyHigh Microplate Spectrophotometer). The ACP- and ALP-specific activity was estimated as OD 415/mg protein·h.

[3] = system: ALPs; test: In vivo ALP inhibition in treated fourth-instar larvae; parameters: species or system Rhynchophorus ferrugineus; details: fourth-instar larvae treated 24 h
Experimental: as §3
(§4) Each enzyme’s in vivo impact was measured after treating larvae with an extract or pure chemicals. An inhibitor-free test combination served as a negative control. We determined the absorbance of the enzymes throughout a spectrum of wavelengths using a rapid reader for ELISA plates (Multiskan SkyHigh Microplate Spectrophotometer). Extracts and pure chemicals were used to treat R. ferrugineus larvae at previous serial concentrations, and their AChE, ACP, ALP, and GABA-T activity was tested in vivo using the methods outlined above. Larvae spent a day on leaf disks treated with chemicals or extract.

[4] = system: R. ferrugineus adults; test: Antifeedant/insecticidal test on adults with treated sugarcane stem (probit LC50); format: in vivo, Rhynchophorus ferrugineus; details: Rhynchophorus ferrugineus, 24 h, after 1 day of treatment, 95% confidence limits in brackets, read-out: LC50
Experimental: (§5) Over the course of 40 days, an O. basilicum cell suspension was cultivated in this investigation, and then the extract was obtained. […] Long segments of sugarcane stem were employed in the insect breeding lab at King Faisal University’s Research and Training Center to raise adult R. ferrugineus larvae. For this experiment, we used a topical application technique with larvae stored at 4 °C for five minutes to test the extract’s activity. Using a hand-operated micro-applicator (Burkard Manufacturing Co., Ltd., Hertfordshire, UK, collected using a […] micro-syringe), extracts at escalating ratios (10 µL) were injected into the dorsal surface of the larvae (Ito Corp.; MS-N50, Shizuoka, Japan). Five larvae per box in a series of three replicates were fed on sugarcane stem pieces measuring 10 cm in length. The LD50 was calculated by measuring the percentage of dead larvae at 24, 48, 72, and 96 h following a topical application. The antifeedant impact was determined in adults by giving them 10 cm sugarcane stem segments cut in half longitudinally. Long strips of sugarcane stem (32 cm^2) were immersed in the previous serial extract and compound concentration (10 mL) for ten seconds before they were dried in ambient air using a plastic box. Each box included a new pair of larvae (a male and a female). Ten sets of each treatment were performed. Data on how well the subjects ate were evaluated at 24, 48, 72, and 96 h.
(§6) The tissue culture parameters were calculated quantitatively from three independent sets of samples, and the mean SD was used to describe the findings. Toxicity parameters were determined quantitatively using a 10-replicate sample, and means and standard deviations were used to present the data. The median dosage obtained from a dose–response regression was used to calculate the LC50 value. By analyzing the comparative growth rate vs. the crude extract logarithm using least squares regression, the range of LC50 was calculated with 95% confidence. A simple variance study was performed on the increased weight and enzymatic activity data (ANOVA). The distinction between the means was accomplished using the Student–Newman–Keuls (SNK) test. Additionally, SPSS version 25 was used to find p < 0.05 significant deviations from the mean.

[5] = system: AChE; test: In vivo AChE inhibition in treated fourth-instar larvae; parameters: species or system Rhynchophorus ferrugineus; details: fourth-instar larvae treated 24 h
Experimental: as §2, §4

[6] = system: fourth-instar larvae of R. ferrugineus; test: Topical application (contact) to fourth-instar larvae (probit LD50); format: in vivo, Rhynchophorus ferrugineus; details: after 1 day of treatment, 95% confidence limits in brackets
Experimental: as §5, §6

[7] = system: ALPs; test: In vitro ALP inhibition, larval homogenate; format: biochemical, Rhynchophorus ferrugineus; details: for IC50 ALPs in vitro: fourth-instar larvae preparation
Experimental: as §1, §3

[8] = system: ACPs; test: In vivo ACP inhibition in treated fourth-instar larvae; parameters: species or system Rhynchophorus ferrugineus; details: fourth-instar larvae treated 24 h
Experimental: as §3, §4

[9] = listed as quercetin-3-O-rutinoside

## O=C(/C=C/c1ccc(O)c(O)c1)O/C=C\c1ccc(O)c(O)c1 [Nepetoidin B]
[1]
  IC50 AChE in vitro: 147 ± 1.38 µg/mL
[1]; listed as nepetoidin B
  IC50 AChE in vitro: 147.2 µg/mL
[2]; listed as nepetoidin B
  IC50 ACPs in vitro: 154.2 µg/mL (≈ 491 µM)
[3]; listed as nepetoidin B
  IC50 ALPs in vivo: 307.9 µg/mL
[4]
  LC50: 1270 µg/mL (≈ 4050 µM)
[5]
  IC50 AChE in vivo: 282 ± 1.38 µg/mL
[5]; listed as nepetoidin B
  IC50 AChE in vivo: 281.7 µg/mL
[6]
  LD50: 11.5 (10.9–12.1) µg/Larvae
[6]; listed as nepetoidin B
  LD50: 11.5 µg/Larvae
[7]
  IC50 ALP in vitro: 166 µg/mL (≈ 529 µM)
[7]; listed as nepetoidin B
  IC50 ALPs in vitro: < 200 µg/mL
[8]; listed as nepetoidin B
  IC50 ACPs in vivo: < 330 µg/mL and 294.3 µg/mL

## C[C@@H]1O[C@@H](OC[C@H]2O[C@@H](Oc3c(-c4ccc(O)c(O)c4)oc4cc(O)cc(O)c4c3=O)[C@H](O)[C@@H](O)[C@@H]2O)[C@H](O)[C@H](O)[C@H]1O [Quercetin-3-O-rutinoside]
[1]
  IC50 AChE in vitro: 98 ± 0.87 µg/mL
[1]; [9]
  IC50 AChE in vitro: 98.4 µg/mL
[2]; [9]
  IC50 ACPs in vitro: 104.8 µg/mL (≈ 172 µM)
[4]
  LC50: 1170 µg/mL (≈ 1910 µM)
[5]
  IC50 AChE in vivo: 348 ± 0.87 µg/mL
[5]; [9]
  IC50 AChE in vivo: 347.6 µg/mL
[6]
  LD50: 16.2 (15.3–17.2) µg/Larvae
[6]; [9]
  LD50: 16.2 µg/Larvae
[7]
  IC50 ALP in vitro: 102 µg/mL (≈ 168 µM)
[7]; [9]
  IC50 ALPs in vitro: < 200 µg/mL
[8]; [9]
  IC50 ACPs in vivo: 298.4 µg/mL

## COc1cc(/C=C/C(=O)O[C@@H](C(=O)O)[C@@H](O)C(=O)O)ccc1O [Fertaric acid]
[1]
  IC50 AChE in vitro: 124 ± 1.18 µg/mL
[1]; listed as fertaric acid
  IC50 AChE in vitro: 123.6 µg/mL
[2]; listed as fertaric acid
  IC50 ACPs in vitro: 133.5 µg/mL (≈ 409 µM)
[3]; listed as fertaric acid
  IC50 ALPs in vivo: 436.8 µg/mL
[4]
  LC50: 1530 µg/mL (≈ 4680 µM)
[5]
  IC50 AChE in vivo: 385 ± 1.18 µg/mL
[5]; listed as fertaric acid
  IC50 AChE in vivo: 384.7 µg/mL
[6]
  LD50: 19.46 (18.23–20.76) µg/Larvae
[6]; listed as fertaric acid
  LD50: 19.46 µg/Larvae
[7]
  IC50 ALP in vitro: 137 µg/mL (≈ 421 µM)
[7]; listed as fertaric acid
  IC50 ALPs in vitro: < 200 µg/mL
[8]; listed as fertaric acid
  IC50 ACPs in vivo: 349.4 µg/mL

## O=C(/C=C/c1ccc(O)c(O)c1/C=C/c1ccc(O)c(O)c1)O[C@H](Cc1ccc(O)c(O)c1)C(=O)O [Salvianolic acid A]
[1]
  IC50 AChE in vitro: 94 ± 0.94 µg/mL
[1]; listed as salvianolic acid A
  IC50 AChE in vitro: 93.6 µg/mL
[2]; listed as salvianolic acid A
  IC50 ACPs in vitro: 112.2 µg/mL (≈ 227 µM)
[3]
  IC50 ALPs in vivo: 213.8 µg/mL
[4]
  LC50: 1260 µg/mL (≈ 2550 µM)
[5]
  IC50 AChE in vivo: 178.2 µg/mL
[6]
  LD50: 11.3 (10.2–12.47) µg/Larvae
[6]; listed as salvianolic acid A
  LD50: 11.3 µg/Larvae
[7]
  IC50 ALP in vitro: 116 µg/mL (≈ 234 µM)
[7]; listed as salvianolic acid A
  IC50 ALPs in vitro: < 200 µg/mL
[8]
  IC50 ACPs in vivo: < 330 µg/mL and 226.3 µg/mL

## Chicoric acid
[1]
  IC50 AChE in vitro: 108 ± 1.07 µg/mL
[1]; listed as chicoric acid
  IC50 AChE in vitro: 107.5 µg/mL
[2]; listed as chicoric acid
  IC50 ACPs in vitro: 101.7 µg/mL
[3]; listed as chicoric acid
  IC50 ALPs in vivo: 237.2 µg/mL
[5]
  IC50 AChE in vivo: 213 ± 1.07 µg/mL
[5]; listed as chicoric acid
  IC50 AChE in vivo: 211.6 µg/mL
[6]
  LD50: 9.45 (9.07–10.45) µg/Larvae
[6]; listed as chicoric acid
  LD50: 9.45 µg/Larvae
[7]; listed as chicoric acid
  IC50 ALPs in vitro: < 200 µg/mL
[8]; listed as chicoric acid
  IC50 ACPs in vivo: < 330 µg/mL and 204.8 µg/mL
